The target in assay [1] is T1, BSA (Bos taurus, UniProt P02769). The assay can be described thus: BSA fluorescence quenching titration (Stern-Volmer / Scatchard). In kind it is binding, bovine. The note with it: for Kbin: BSA binding constant from Scatchard equation; for n (number of binding sites): Scatchard plot log (I0 − I)/I vs. log [Q]; for KSV: Stern-Volmer constant; for Kq: quenching constant, Kq = Ksv/τ0, τ0 = 10 ns. On the procedure:
The excitation and emission wavelengths of BSA at 280 nm were monitored in protein binding studies using BSA ([…]) solution prepared in Tris-HCl buffer (pH 7.5), and the solution was stored in a dark place at 4 °C.
Interactions between the most common blood protein, serum albumin, and complexes have sparked a lot of interest recently because of their structural similarity to human serum albumin. To better understand the mechanism of interaction between BPA and its nickel(II) complex NiBPA with BSA, fluorescence quenching studies were carried out. BSA’s fluorescence is due to intrinsic protein characteristics, such as the presence of tryptophan and tyrosine residues. Variations in the emission spectra caused by protein conformational changes, subunit interaction, substrate binding, or denaturation are largely attributed to the tryptophan residue. As a result, BSA fluorescence behavior can provide valuable insight into protein structure, dynamics, and folding. Fluorescence titration experiments were performed at room temperature with BSA and different concentrations of BPA and NiBPA in the range 200–600 nm (λex. 280 nm). A slight red shift (40 percent, BPA; 65 percent, NiBPA; Figure 3) reduced the intensity of BSA fluorescence at 343 nm. The presence of the protein’s active site in a hydrophobic environment causes the redshift. […] The quenching mechanism can be set to either static or dynamic operation. Dynamic quenching occurs when the fluorophore and the quencher come into contact during the excited state’s transient existence, whereas static quenching is caused by the formation of a complex between the quencher and the fluorophore in the ground state. BSA (fluorophore) has a UV-vis absorption spectrum that can be used to investigate the type of quenching quickly and easily. […] The binding constants for BPA and NiBPA were calculated using Equation (1) and found to be 0.4 × 10^4 M^−1 and 0.82 × 10^4 M^−1, respectively (Table 1). […] Furthermore, the findings are in line with previous research on related compounds.
The Kq value is much higher than the 2 × 10^10 M^−1s^−1 maximum scatters collision quenching constant of quenchers with BSA (Kq = Ksv/τ0), where KSV is the Stern–Volmer constant and τ0 is the average lifetime of the BSA in the absence of the quencher (τ0 = 10 ns). This supports the idea of a static quenching mechanism. […] It is second order in [Q] and thus leads to upward curvy plots of I0/I versus [Q] at higher [Q].
The quenching constant (Kq) was calculated using the Stern–Volmer and Scatchard equation and plotted as I0/I vs. [Q] to better understand the quenching process (Figure 3). In addition, Scatchard Equation (2) was used to calculate the equilibrium binding constant:log[(I0 − I)/I] = log Kbin + n log [Q](2) where Kbin is the compound’s BSA binding constant and n is the number of binding sites. From the log (I0 − I)/I vs. log [Q] plot (Figure 5), the binding constant (Kbin) and the number of binding sites (n) have been calculated (Table 1). The estimated value of n (∼1) for BPA and NiBPA strongly supported the existence of a single binding site in BSA.

In assay [2] the target is T1, BSA. The assay can be described thus: BSA UV-vis absorption titration (Benesi-Hildebrand binding constant). Set-up: species or system bovine. On the procedure:
Interactions between the most common blood protein, serum albumin, and complexes have sparked a lot of interest recently because of their structural similarity to human serum albumin. To better understand the mechanism of interaction between BPA and its nickel(II) complex NiBPA with BSA, fluorescence quenching studies were carried out. BSA’s fluorescence is due to intrinsic protein characteristics, such as the presence of tryptophan and tyrosine residues. Variations in the emission spectra caused by protein conformational changes, subunit interaction, substrate binding, or denaturation are largely attributed to the tryptophan residue. As a result, BSA fluorescence behavior can provide valuable insight into protein structure, dynamics, and folding. Fluorescence titration experiments were performed at room temperature with BSA and different concentrations of BPA and NiBPA in the range 200–600 nm (λex. 280 nm). A slight red shift (40 percent, BPA; 65 percent, NiBPA; Figure 3) reduced the intensity of BSA fluorescence at 343 nm. The presence of the protein’s active site in a hydrophobic environment causes the redshift. […] The quenching mechanism can be set to either static or dynamic operation. […] The binding constants for BPA and NiBPA were calculated using Equation (1) and found to be 0.4 × 10^4 M^−1 and 0.82 × 10^4 M^−1, respectively (Table 1). […]

The subject of assay [3] is ct-DNA. The assay can be described thus: ct-DNA electronic absorption titration. The class given is binding. The note with it: phosphate buffer pH 7.2. On the procedure: Electronic absorption measurements were performed with a constant concentration of ctDNA and increasing concentrations of BPA and NiBPA (Na-phosphate buffer solution, pH 7.2). […] Intrinsic fluorescence was measured with the ct-DNA solution at the excitation wavelength (ex, 330), and emission spectra were recorded at 550–700 nm after aliquot addition of BPA and NiBPA.
Absorption titration information was depicted in Figure 6 to understand the mode of interaction of complexes with ct-DNA. Increased addition of a solution of BPA to a solution of ct-DNA causes hyperchromic for the band at 264 nm with a blue shift of 5 nm (259 nm), as shown in the absorption titration spectrum (Figure 6). The band at 278 nm, on the other hand, was hypochromic with a small blue shift of 2 nm (276 nm). The presence of […] in the medium was indicated by the isosbestic point in the titration curve at 274 nm. […] The hydrogen bonds formed with the –OH and SH groups of BPA and NiBPA are caused by the presence of many accessible hydrogen binding sites in the DNA major and minor grooves. The binding constants for BPA (0.16 × 10^5 M^−1) and NiBPA (0.52 × 10^5 M^−1) are similar to those of well-known groove binding rather than classical intercalation, implying that NiBPA interacts with ct-DNA much more strongly than BPA under investigation.

In assay [4] the test system is human liver cancer (HepG2) cell lines. The assay can be described thus: MTT cytotoxicity assay, liver cancer cells. In kind it is cell-based. On the technique in general: Tetrazolium dyes change colour on reduction, which living cells bring about.
Protocol: Methyl thiazolyl tetrazolium (MTT) colorimetry [47] was used to assess the cytotoxicity of BPA and one for human liver cancer (HepG2) cell lines. MTT can be converted into formazan by living cells with an active metabolism, but this ability is lost in dying cells. Therefore, in this study, the MTT assay was used to determine how many viable cells there were. Before the investigated compounds were added, cells were cultured in 96-well flat-bottomed microtiter plates at a density of 1 × 10^4 cells/well (100 l/well) for 70 to 80 percent confluent cultures, and the cultures were then incubated at 37 °C and 5 percent CO2 for 24 h. The compounds were used in a range of concentrations (31.2, 62.5, 125.0, 250.0, 500.0, and 1000.0 g/mL), and the cells were cultured for 24 h. Then, 10 µl of the 12 mM MTT stock solution (5 mg/mL MTT in sterile PBS) was added to each well at the conclusion of the incubation period. After that, the plate was incubated at 37 °C for 4 h. […] On an ELISA reader, the absorbance at 570 nm was read (StatFax-2100, Awareness Technology, Inc., USA). The percentage of cells inhibited was calculated using: % CellInhibition=100−T−T0/C−T0 where T is the optical density of the test sample, To is the optical density at time zero, and C is the optical density of the control.
Assay [5] can be described thus: MTT cytotoxicity assay, normal cells. The class given is cell-based.
Assay [6] deals with S. aureus. The assay can be described thus: Antibacterial MIC/MBC, S. aureus. The class given is cell-based. The note with it: Gram-positive. On the procedure:
(§1) Several studies have shown that organic compound coordination with a metallic element results in significant changes in the biological activity of both the organic ligand and the metal. As a result, BPA and its nickel complex NiBPA were tested in vitro for antibacterial activity against Gram-positive (S. aureus and S epidermidis) and Gram-negative (P. mirabilis and E. coli) bacteria. Figure 10 depicts the antibacterial function of BPA and NiBPA as the diameter of the growth-inhibition region in millimeters. […] The MBC is identified by determining the lowest concentration of antibacterial agents that reduces the viability of the initial bacterial inoculum by 99.9%. The MIC or MBC strain was chosen based on the value agreed upon on two or more occasions. The antibiotic tobramycin (TOB) was used to control the situation. The inhibition zone, as well as the MIC and MBC data, leads to the following conclusions. […] This is explained by the metal ion’s polarity and cationic charge, as NiBPA has a cationic property with two positive charges. […] The interaction between Gram-negative bacteria and NiBPA was stronger than that of Gram-positive bacteria due to the higher negative charge on the cell surface, despite the presence of an outer membrane in Gram-negative bacteria (see Figure 11).

Assay [7] has as its system E. faecalis. Kind of assay: Antibacterial MIC/MBC, E. faecalis. The note with it: Gram-positive. In kind it is cell-based. Set-up: MIC: unit not given here.
Assay [8] has as its system P. aeruginosa. The assay can be described thus: Antibacterial MIC/MBC, P. aeruginosa. The class given is cell-based. Set-up: MIC: unit not given here. The note with it: Gram-negative.
Assay [9] concerns E. coli. The assay can be described thus: Antibacterial MIC/MBC, E. coli. In kind it is cell-based. The note with it: Gram-negative. On the procedure: as §1
Where [10] appears, read: BSA fluorescence, λex 280 nm, room temperature.

Converted amounts (≈) assume the structure as drawn.

Take `c1ccc(CNCc2ccccn2)nc1` [BPA, bis(2-picolyl)amine]: the Kbin in assay [1] was 0.25 10^4 M^−1. Besides, the “n (number of binding sites)” value in assay [1] turned out to be 1.0. The KSV in assay [1] is 2100 M⁻¹; in assay [1] (setting [10]) it was 0.21 10^4 M^−1. Also, the Kq in [1] is recorded as 0.21 10^12 M^−1s^−1. Besides, the “reduction of BSA fluorescence intensity at 343 nm” value in [1] (λex 280 nm, room temperature) is recorded as 40%. The affinity in [2], expressed as Kd, was 250 µM. Besides, in assay [3], the “binding constant (ct-DNA)” value is 16000 M⁻¹. Also, the IC50 (usually the midpoint of a concentration-inhibition curve) is 100 ± 1 µg/mL (≈ 502 µM) in assay [4] (Homo sapiens, HepG2, 24 h) and 237.2 ± 1.3 µg/mL (≈ 1190 µM) in [5] (Homo sapiens, WI-38, 24 h). Moreover, the MBC in assay [6], in [7], in [8] and in [9] was 0 µg/mL throughout.
Regarding `O.[Cl][Ni][Cl].c1ccc(CNCc2ccccn2)nc1` [NiBPA, [(BPA)NiCl2(H2O)]], the Kbin in assay [1] is recorded as 0.90 10^4 M^−1. For the same compound, in assay [1], the “n (number of binding sites)” value is reported as 1.3. Further, the KSV in [1] is 7000 M⁻¹; in [1] (setting [10]), 0.70 10^4 M^−1. Also, in [1], the Kq is recorded as 0.70 10^12 M^−1s^−1. Besides, the “reduction of BSA fluorescence intensity at 343 nm” value in [1] (λex 280 nm, room temperature) was 65%. Further, the “binding constant (BSA)” value in [2] (BSA UV absorption) worked out at 8200 M⁻¹. Further, in assay [3], the “binding constant (ct-DNA)” value worked out at 52000 M⁻¹. Besides, the IC50 in [4] (HepG2, MTT, 24 h) came out at 75.0 ± 0.5 µg/mL; in [5] (normal liver (Wi38) cells, MTT, 24 h), 120.0 ± 0.5 µg/mL. The MBC (usually the smallest concentration meeting the test's criterion for killing) in assay [6] stood at 76.0 µg/mL; in [7], 80.0 µg/mL; in [8] it was 70.0 µg/mL; in assay [9], 63.0 µg/mL. Besides, the figures for the MIC in assay [7] and in [8] were 43.0 and 35.0, respectively.

For the origin of these results see paper PMC9680484, “Synthesis, Biophysical Interaction of DNA/BSA, Equilibrium and Stopped-Flow Kinetic Studies, and Biological Evaluation of bis(2-Picolyl)amine-Based Nickel(II) Complex” (Biomimetics, 2022).
